Legend:
Format in all cases: cell-based
[1] = test system: bacteria, fungi and mycobacteria; experiment: Quantitative suspension tests, summary of activity in words
[2] = test system: Mycobacterium terrae (ATCC15755); experiment: Mycobacterium terrae quantitative suspension test without stress (Test 2); conditions: for Reduction factor: 0.1%
[3] = test system: Candida albicans; experiment: Quantitative suspension test, reduction factors (Test 1)
Method: (§1) Reduction factors were obtained with various solutions for use (SA=Staphylococcus aureus, PA=Pseudomonas aeruginosa, EC=Escherichia coli, CA=Candida albicans, AN=Aspergillus niger, MT=Mycobacterium terrae), initial microbe count 0.8−5×10^9/ml, for CA 2×10^7/ml, neutralizer Tryp-NaCl-TLSH (No. 22). Concerning the activity on Mycobacterium terrae, cf.
(§2) […] After acting for times of 5, 15, 30 and 60 minutes, 1 ml samples of the disinfectant/microbe mixture are taken and transferred into 9 ml of inactivation liquid (0.1% tryptone+0.85% NaCl in double-distilled water+inactivators). After a contact time not exceeding 30 minutes in the inactivation liquid, dilutions (10^−2 and 10^−4 in 0.1% tryptone+0.85% NaCl in double-distilled water) are made up. 0.1 ml samples of the inactivation liquid and the two dilutions are then transferred by spatula onto 3 CSA plates for each. As a control, the respective test microbe suspension is mixed with 10 ml of WSH in place of disinfectant. Subcultures are to be set up from this batch in the same way in parallel with the corresponding action times.
(§3) All subcultures are incubated at 37° C. for 48 hours, in the case of Candida albicans at 37° C. for 72 hours, and the colonies are counted. The reduction is calculated as follows: CFU between 20 and 300 per CSA plate are to be evaluated. After determination of the arithmetic mean of three values, the disinfectant effect (GRt) per unit time is calculated from the formula GRt=logCFU(co) minus logCFU(D) in which CFU(co) is the number of CFU per ml without exposure to the product, and CFU(D) is the number of CFU per ml after exposure to the product.

[4] = test system: Escherichia coli; experiment: as above
Method: as §1, §2, §3

[5] = test system: Staphylococcus aureus; experiment: as above
Method: as §1, §2, §3

[6] = test system: Aspergillus niger; experiment: as above
Method: as §1, §2, §3

[7] = test system: Pseudomonas aeruginosa; experiment: as above
Method: as §1, §2, §3

CCCCC(CC)COCC(O)CO (centres unmarked) [SC 50, 1-(2-Ethylhexyl)glycerol ether]
Activity (in words) ([1]; 0.1% by weight solution, 50° C.): broad activity on gram-positive and gram-negative bacteria, yeasts and mycobacteria
Activity (in words) ([1]; 0.1% by weight, low temperature): virtually no antimicrobial activity
Activity on bacteria (gram-positive and gram-negative) and mycobacteria (in words) ([1]; above 25° C.): particularly active
Activity on yeasts (e.g. Candida albicans) and moulds (e.g. Aspergillus niger) (in words) ([1]; use concentration 0.1% by weight): still requires improvement
Activity on Mycobacterium terrae (in words) ([2]; 0.05% by weight, 50° C., 60 minutes): neither 0.05% by weight SC 50 nor 0.75% by weight POE, even acting for a time of 60 minutes, display any activity
Reduction factor ([2]; 30° C., 15′): 0.00
Reduction factor ([2]; 30° C., 30′): 0.00
Reduction factor ([2]; 30° C., 60′): 0.00
Reduction factor ([2]; 40° C., 15′): 0.00
Reduction factor ([2]; 40° C., 30′): 0.00
Reduction factor ([2]; 40° C., 60′): 0.00
Reduction factor ([2]; 50° C., 15′): 3.10
Reduction factor ([2]; 50° C., 30′): 3.34
Reduction factor ([2]; 50° C., 60′): 3.48
Reduction factor ([2]; room temperature, 15′): 0.00
Reduction factor ([2]; room temperature, 30′): 0.00
Reduction factor ([2]; room temperature, 60′): 0.00
Reduction factor ([3]; 0.05%, 30° C., 15′): 0.00
Reduction factor ([3]; 0.05%, 30° C., 30′): 0.00
Reduction factor ([3]; 0.05%, 30° C., 60′): 0.00
Reduction factor ([3]; 0.05%, 40° C., 15′): 0.54
Reduction factor ([3]; 0.05%, 40° C., 30′): 0.45
Reduction factor ([3]; 0.05%, 40° C., 60′): 0.59
Reduction factor ([3]; 0.05%, 50° C., 15′): 0.00
Reduction factor ([3]; 0.05%, 50° C., 30′): 0.00
Reduction factor ([3]; 0.05%, 50° C., 60′): 1.08
Reduction factor ([3]; 0.05%, room temperature, 15′): 0.00
Reduction factor ([3]; 0.05%, room temperature, 30′): 0.00
Reduction factor ([3]; 0.05%, room temperature, 60′): 0.00
Reduction factor ([3]; 0.1%, 30° C., 15′): 0.10
Reduction factor ([3]; 0.1%, 30° C., 30′): −0.08
Reduction factor ([3]; 0.1%, 30° C., 60′): 0.64
Reduction factor ([3]; 0.1%, 40° C., 15′): 0.55
Reduction factor ([3]; 0.1%, 40° C., 30′): 0.46
Reduction factor ([3]; 0.1%, 40° C., 60′): 0.65
Reduction factor ([3]; 0.1%, 50° C., 15′): 1.07
Reduction factor ([3]; 0.1%, 50° C., 30′): 1.53
Reduction factor ([3]; 0.1%, 50° C., 60′): 4.20
Reduction factor ([3]; 0.1%, room temperature, 15′): 0.00
Reduction factor ([3]; 0.1%, room temperature, 30′): 0.00
Reduction factor ([3]; 0.1%, room temperature, 60′): 0.00
Reduction factor ([4]; 0.05%, 30° C., 15′): 0.13
Reduction factor ([4]; 0.05%, 30° C., 30′): 0.25
Reduction factor ([4]; 0.05%, 30° C., 60′): 0.36
Reduction factor ([4]; 0.05%, 40° C., 15′): 0.00
Reduction factor ([4]; 0.05%, 40° C., 30′): 0.00
Reduction factor ([4]; 0.05%, 40° C., 60′): 0.00
Reduction factor ([4]; 0.05%, 50° C., 15′): 1.17
Reduction factor ([4]; 0.05%, 50° C., 30′): 1.70
Reduction factor ([4]; 0.05%, 50° C., 60′): 2.85
Reduction factor ([4]; 0.05%, room temperature, 15′): 0.00
Reduction factor ([4]; 0.05%, room temperature, 30′): 0.43
Reduction factor ([4]; 0.05%, room temperature, 60′): 0.25
Reduction factor ([4]; 0.1%, 30° C., 15′): 0.54
Reduction factor ([4]; 0.1%, 30° C., 30′): 0.58
Reduction factor ([4]; 0.1%, 30° C., 60′): 1.15
Reduction factor ([4]; 0.1%, 40° C., 15′): 1.84
Reduction factor ([4]; 0.1%, 40° C., 30′): 3.27
Reduction factor ([4]; 0.1%, 40° C., 60′): 3.46
Reduction factor ([4]; 0.1%, 50° C., 15′): 3.74
Reduction factor ([4]; 0.1%, 50° C., 30′): 4.95
Reduction factor ([4]; 0.1%, 50° C., 60′): 4.90
Reduction factor ([4]; 0.1%, room temperature, 15′): 0.00
Reduction factor ([4]; 0.1%, room temperature, 30′): 0.54
Reduction factor ([4]; 0.1%, room temperature, 60′): 0.50
Reduction factor ([5]; 0.05%, 30° C., 15′): 0.00
Reduction factor ([5]; 0.05%, 30° C., 30′): 0.00
Reduction factor ([5]; 0.05%, 30° C., 60′): 0.00
Reduction factor ([5]; 0.05%, 40° C., 15′): 0.70
Reduction factor ([5]; 0.05%, 40° C., 30′): 0.88
Reduction factor ([5]; 0.05%, 40° C., 60′): 0.57
Reduction factor ([5]; 0.05%, 50° C., 15′): 0.58
Reduction factor ([5]; 0.05%, 50° C., 30′): 0.81
Reduction factor ([5]; 0.05%, 50° C., 60′): 0.29
Reduction factor ([5]; 0.05%, room temperature, 15′): 0.00
Reduction factor ([5]; 0.05%, room temperature, 30′): 0.00
Reduction factor ([5]; 0.05%, room temperature, 60′): 0.00
Reduction factor ([5]; 0.1%, 30° C., 15′): 0.78
Reduction factor ([5]; 0.1%, 30° C., 30′): 0.53
Reduction factor ([5]; 0.1%, 30° C., 60′): 0.35
Reduction factor ([5]; 0.1%, 40° C., 15′): 0.97
Reduction factor ([5]; 0.1%, 40° C., 30′): 1.56
Reduction factor ([5]; 0.1%, 40° C., 60′): 1.45
Reduction factor ([5]; 0.1%, 50° C., 15′): 2.44
Reduction factor ([5]; 0.1%, 50° C., 30′): 4.93
Reduction factor ([5]; 0.1%, 50° C., 60′): 4.70
Reduction factor ([5]; 0.1%, room temperature, 15′): 0.00
Reduction factor ([5]; 0.1%, room temperature, 30′): 0.00
Reduction factor ([5]; 0.1%, room temperature, 60′): 0.96
Reduction factor ([6]; 0.05%, 30° C., 15′): 0.08
Reduction factor ([6]; 0.05%, 30° C., 30′): 0.70
Reduction factor ([6]; 0.05%, 30° C., 60′): 0.60
Reduction factor ([6]; 0.05%, 50° C., 15′): 0.12
Reduction factor ([6]; 0.05%, 50° C., 30′): 0.12
Reduction factor ([6]; 0.05%, 50° C., 60′): −0.12
Reduction factor ([6]; 0.05%, room temperature, 15′): 0.30
Reduction factor ([6]; 0.05%, room temperature, 30′): −0.10
Reduction factor ([6]; 0.05%, room temperature, 60′): 0.22
Reduction factor ([6]; 0.1%, 30° C., 15′): 0.30
Reduction factor ([6]; 0.1%, 30° C., 30′): 0.70
Reduction factor ([6]; 0.1%, 30° C., 60′): 0.60
Reduction factor ([6]; 0.1%, 50° C., 15′): −0.10
Reduction factor ([6]; 0.1%, 50° C., 30′): 0.30
Reduction factor ([6]; 0.1%, 50° C., 60′): 0.18
Reduction factor ([6]; 0.1%, room temperature, 15′): −0.35
Reduction factor ([6]; 0.1%, room temperature, 30′): −0.10
Reduction factor ([6]; 0.1%, room temperature, 60′): 0.40
Reduction factor ([7]; 0.05%, 30° C., 15′): 0.00
Reduction factor ([7]; 0.05%, 30° C., 30′): 0.00
Reduction factor ([7]; 0.05%, 30° C., 60′): 0.00
Reduction factor ([7]; 0.05%, 40° C., 15′): 0.00
Reduction factor ([7]; 0.05%, 40° C., 30′): 0.00
Reduction factor ([7]; 0.05%, 40° C., 60′): 0.00
Reduction factor ([7]; 0.05%, 50° C., 15′): 0.00
Reduction factor ([7]; 0.05%, 50° C., 30′): 0.85
Reduction factor ([7]; 0.05%, 50° C., 60′): 0.96
Reduction factor ([7]; 0.05%, room temperature, 15′): 0.00
Reduction factor ([7]; 0.05%, room temperature, 30′): 0.00
Reduction factor ([7]; 0.05%, room temperature, 60′): 0.00
Reduction factor ([7]; 0.1%, 30° C., 15′): 0.00
Reduction factor ([7]; 0.1%, 30° C., 30′): 0.00
Reduction factor ([7]; 0.1%, 30° C., 60′): 1.01
Reduction factor ([7]; 0.1%, 40° C., 15′): 1.03
Reduction factor ([7]; 0.1%, 40° C., 30′): 1.10
Reduction factor ([7]; 0.1%, 40° C., 60′): 1.14
Reduction factor ([7]; 0.1%, 50° C., 15′): 3.55
Reduction factor ([7]; 0.1%, 50° C., 30′): 3.50
Reduction factor ([7]; 0.1%, 50° C., 60′): 4.00
Reduction factor ([7]; 0.1%, room temperature, 15′): 0.00
Reduction factor ([7]; 0.1%, room temperature, 30′): 0.00
Reduction factor ([7]; 0.1%, room temperature, 60′): 0.00
